Source: US6489098B1, “Means and methods for monitoring nucleoside reverse transcriptase inhibitor antiretroviral therapy and guiding therapeutic decisions in the treatment of HIV/AIDS” (ViroLogic, Inc., priority 1998, dated 2002)

Legend:
[1] = tested on: HIV-1 RT mutant resistance test vector M41L-T69SSA-T215Y-RTV; experiment: Phenotypic susceptibility assay, site directed RTV M41L+T69SSA+T215Y; type: cell-based; conditions: for effect on susceptibility (words): RTV with M41L+T69SSA+T215Y
Method: (§1) Resistance tests were carried out with resistance test vectors using two host cell types. Resistance test vector viral particles were produced by a first host cell (the resistance test vector host cell) that was prepared by transfecting a packaging host cell with the resistance test vector and the packaging expression vector. The resistance test vector viral particles were then used to infect a second host cell (the target host cell) in which the expression of the indicator gene is measured.
(§2) The resistance test vectors containing a functional luciferase gene cassette were constructed and host cells were transfected with the resistance test vector DNA. The resistant test vectors contained patient-derived reverse transcriptase and protease sequences that were either susceptible or resistant to the antiretroviral agents, such as nucleoside reverse transcriptase inhibitors, non-nucleoside reverse transcriptase inhibitors and protease inhibitors. The resistance test vector viral particles produced by transfecting the resistance test vector DNA into host cells, either in the presence or absence of protease inhibitors, were used to infect target host cells grown either in the absence of NRTI or NNRTI or In the presence of increasing concentrations of the drug. The amount of luciferase activIty produced in infected target host cells in the presence of drug was compared to the amount of luciferase produced in infected target host cells in the absence of drug. Drug resistance was measured as the amount of drug required to inhibit by 50% the luciferase activity detected in the absence of drug (Inhibitory concentration 50%, IC50). The IC50 values were determined by plotting percent drug inhibition vs. log 10 drug concentration.
(§3) Host cells were seeded in 10-cm-diameter dishes and were transfected several days after plating with resistance test vector plasmid DNA and the envelope expression vector. Transfections were performed using a calcium-phosphate precipitation procedure. The cell culture media containing the DNA precipitate was replaced with fresh medium, from one to 24 hours, after transfection. Cell culture media containing resistance test vector viral particles was harvested one to four days after transfection and was passed through a […] filter before being stored at −80° C. HIV capsid protein (p24) levels in the harvested cell culture media were determined by an EIA method as described by the manufacturer (SIAC; Frederick, Md.). Before infection, target cells (293 and 293/T) were plated in cell culture media. Control infections were performed using cell culture media from mock transfections (no DNA) or transfections containing the resistance test vector plasmid DNA without the envelope expression plasmid. One to three or more days after infectIon the media was removed and cell lysis buffer (Promega) was added to each well. Cell lysates were assayed for luciferase activity (FIG. 3). The inhibitory effect of the drug was determined using the following equation:
(§4) % luciferase inhibition=1−(RLUluc[drug]÷RLUluc)×100
(§5) where RLUluc [drug] is the relative light unit of luciferase activity in infected cells in the presence of drug and RLUluc is the Relative Light Unit of luciferase activity in infected cells in the absence of drug. IC50 values were obtained from the sigmoidal curves that were generated from the data by plotting the percent inhibition of luciferase activity vs. the log 10 drug concentration. The drug inhibition curves are shown in (FIG. 3).
(§6) Genotypic changes that are observed to correlate with changes in phenotypic patterns of drug susceptibility are evaluated by construction of resistance test vectors containing the specific mutation on a defined, wild-type (drug susceptible) genetic background. Mutations may be incorporated alone and/or in combination with other known drug resistance mutations that are thought to modulate the susceptibility of HIV to a certain drug or class of drugs. […]

[2] = tested on: HIV-1 RT mutant resistance test vector 41 + 210 + 215; experiment: Phenotypic susceptibility assay, site directed RTV 41 + 210 + 215; type: cell-based; conditions: RTV with 41 + 210 + 215; 3 replicates
Method: as §1, §2, §3, §4, §5, §6

[3] = tested on: HIV-1 RT mutant resistance test vector M41L+A62V+T69SSA+M184V+T215Y; experiment: Phenotypic susceptibility assay, site directed RTV M41L+A62V+T69SSA+M184V+T215Y; type: cell-based; conditions: RTV with 41 + 62 + 69 + 184 + 215; 2 replicates
Method: as §1, §2, §3, §4, §5, §6

[4] = tested on: HIV-1 RT mutant resistance test vector 41 + 184 + 215; experiment: Phenotypic susceptibility assay, site directed RTV 41 + 184 + 215; type: cell-based; conditions: RTV with 41 + 184 + 215; 3 replicates
Method: as §1, §2, §3, §4, §5, §6

[5] = tested on: HIV-1 RT mutant resistance test vector 41 + 62 + 69 + 75S + 210 + 215; experiment: Phenotypic susceptibility assay, site directed RTV 41 + 62 + 69 + 75S + 210 + 215; type: cell-based; conditions: RTV with 41 + 62 + 69 + 75S + 210 + 215; 1 replicate
Method: as §1, §2, §3, §4, §5, §6

[6] = tested on: HIV-1 RT mutant resistance test vector A62V+T69SSA; experiment: Phenotypic susceptibility assay, site directed RTV A62V+T69SSA; type: cell-based; conditions: RTV with 62 + 69 (A62V+T69SSA); 4 replicates
Method: as §1, §2, §3, §4, §5, §6

[7] = tested on: HIV-1 RT mutant resistance test vector T69SSA; experiment: Phenotypic susceptibility assay, site directed RTV T69SSA; type: cell-based; conditions: RTV with T69SSA vs wild type RTV; 3 replicates
Method: as §1, §2, §3, §4, §5, §6

[8] = tested on: HIV-1 RT mutant resistance test vector A62V; experiment: Phenotypic susceptibility assay, site directed RTV A62V; type: cell-based; conditions: RTV with A62V vs wild type RTV; 3 replicates
Method: as §1, §2, §3, §4, §5, §6

[9] = tested on: HIV-1 RT mutant resistance test vector 41 + 215 (M41L and T215Y); experiment: Phenotypic susceptibility assay, site directed RTV 41 + 215; type: cell-based; conditions: RTV with 41 + 215; 4 replicates
Method: as §1, §2, §3, §4, §5, §6

[10] = tested on: HIV-1 RT mutant resistance test vector 41 + 62 + 69 + 75M + 210 + 215; experiment: Phenotypic susceptibility assay, site directed RTV 41 + 62 + 69 + 75M + 210 + 215; type: cell-based; conditions: RTV with 41 + 62 + 69 + 75M + 210 + 215; 1 replicate
Method: as §1, §2, §3, §4, §5, §6

[11] = tested on: HIV-1 RT mutant resistance test vector 41 + 69 + 184 + 215; experiment: Phenotypic susceptibility assay, site directed RTV 41 + 69 + 184 + 215; type: cell-based; conditions: RTV with 41 + 69 + 184 + 215; 2 replicates
Method: as §1, §2, §3, §4, §5, §6

[12] = tested on: HIV-1 RT mutant resistance test vector A62V+T69SSA+V75I; experiment: Phenotypic susceptibility assay, site directed RTV A62V+T69SSA+V75I; type: cell-based; conditions: RTV with 62 + 69 + 751 (A62V, T69SSA, V75I); 1 replicate
Method: as §1, §2, §3, §4, §5, §6

[13] = tested on: ZDV-resistant HIV isolates; conditions: cited from earlier work
[14] = tested on: HIV-1 RT mutant resistance test vector A62V-T69SSA-T215Y-RTV; experiment: Phenotypic susceptibility assay, site directed RTV A62V-T69SSA-T215Y; type: cell-based; conditions: RTV with 62 + 69 + 215 (A62V, T69SSA, T215Y); 1 replicate
Method: as §1
(§7) The resistance test vectors containing a functional luciferase gene cassette were constructed and host cells were transfected with the resistance test vector DNA. […] The IC50 values were determined by plotting percent drug inhibition vs. log 10 drug concentration.
(§8) Host cells were seeded in 10-cm-diameter dishes and were transfected several days after plating with resistance test vector plasmid DNA and the envelope expression vector. […] HIV capsid protein (p24) levels in the harvested cell culture media were determined by an EIA method as described by the manufacturer (SIAC; Frederick, Md.). […] The inhibitory effect of the drug was determined using the following equation: […]

[15] = tested on: HIV-1 RT mutant resistance test vector M41L-A62V-T69SSA-T215Y-L210W-RTV; experiment: Phenotypic susceptibility assay, site directed RTV M41L+A62V+T69SSA+L210W+T215Y; type: cell-based; conditions: RTV with 41 + 62 + 69 + 210 + 215; 3 replicates
Method: as §1
as §2, with “Drug resistance was measured as the amount of drug required to inhibit by 50% the luciferase activity detected in the absence of drug (Inhibitory concentration 50%, IC50).” left out
as §8

[16] = tested on: HIV-1 RT mutant resistance test vector M41L-T69SSA-T215Y-L210W-RTV; experiment: Phenotypic susceptibility assay, site directed RTV M41L+T69SSA+L210W+T215Y; type: cell-based; conditions: RTV with 41 + 69 + 210 + 215; 3 replicates
Method: as §1
as §2, with “Drug resistance was measured as the amount of drug required to inhibit by 50% the luciferase activity detected in the absence of drug (Inhibitory concentration 50%, IC50).” left out
as §8

[17] = tested on: HIV-1 RT mutant resistance test vector M41L-A62V-T69SSA-T215Y-RTV; experiment: Phenotypic susceptibility assay, site directed RTV M41L+A62V+T69SSA+T215Y; type: cell-based; conditions: RTV with 41 + 62 + 69 + 215; 3 replicates
Method: as §1, §2
as §3, with “Cell lysates were assayed for luciferase activity (FIG. 3).” left out
as §4
where RLUluc [drug] is the relative light unit of luciferase activity in infected cells in the presence of drug and RLUluc is the Relative Light Unit of luciferase activity in infected cells in the absence of drug. IC50 values were obtained from the sigmoidal curves that were generated from the data by plotting the percent inhibition of luciferase activity vs. the log 10 drug concentration.
Mutations may be incorporated alone and/or in combination with other known drug resistance mutations that are thought to modulate the susceptibility of HIV to a certain drug or class of drugs. Mutations are introduced into the resistance test vector through any of the widely known methods for site-directed mutagenesis. In one embodiment of this invention the mega-primer PCR method for site-directed mutagenesis is used.

[18] = tested on: HIV-1 RT mutant resistance test vector M41L-T69SSA-T215Y-L210W-V75M-RTV; experiment: Phenotypic susceptibility assay, site directed RTV M41L+T69SSA+V75M+L210W+T215Y; type: cell-based; conditions: RTV with 41 + 69 + 75M + 210 + 215; 1 replicate
Method: as §1, §7, §8

[19] = tested on: HIV-1 RT mutant resistance test vector A62V-T69SSA-L74V-RTV; experiment: Phenotypic susceptibility assay, site directed RTV A62V-T69SSA-L74V; type: cell-based; conditions: RTV with 62 + 69 + 74V; 1 replicate
Method: as §1, §2
as §3, with “Cell lysates were assayed for luciferase activity (FIG. 3).” left out
as §4
where RLUluc [drug] is the relative light unit of luciferase activity in infected cells in the presence of drug and RLUluc is the Relative Light Unit of luciferase activity in infected cells in the absence of drug. IC50 values were obtained from the sigmoidal curves that were generated from the data by plotting the percent inhibition of luciferase activity vs. the log 10 drug concentration. […]

[20] = tested on: HIV with RT K70E mutation; conditions: in vitro selection; cited from earlier work
[21] = tested on: HIV with RT Lys65→Arg mutation; conditions: Lys65→Arg (K65R); cited from earlier work
[22] = tested on: AZT-resistant, 3TC-resistant and multi-drug resistant viruses; conditions: cited from earlier work

With `Nc1ccn([C@@H]2CS[C@H](CO)O2)c(=O)n1` [3TC, lamivudine] the “Average fold reduction in susceptibility” value ([1]; RTV with 41 + 69 + 215 (M41L, T69SSA, T215Y), 2 replicates) was 6.27 fold, the “Average fold reduction in susceptibility” value [2] was 2.14 fold and the “Average fold reduction in susceptibility” value [3] was >110 fold. The “Average fold reduction in susceptibility” value [4] was >110 fold, the “Average fold reduction in susceptibility” value [5] was 31.67 fold and the “Average fold reduction in susceptibility” value [6] was 2.89 fold. For the same compound, the “Average fold reduction in susceptibility” value [7] was 3.20 fold, the “Average fold reduction in susceptibility” value [8] was 0.54 fold and the “Average fold reduction in susceptibility” value [9] was 1.89 fold. The “Average fold reduction in susceptibility” value [10] was 18.41 fold, the “Average fold reduction in susceptibility” value [11] was >110 fold and the “Average fold reduction in susceptibility” value [12] was 4.08 fold.

In the case of `[N-]=[N+]=N[C@H]1C[C@H](n2ccc(=O)[nH]c2=O)O[C@@H]1CO` [AZU, 3′-azido-2′,3′-dideoxyuridine], the “cross-resistance of ZDV-resistant strains” value [13] is listed as “cross-resistance”.

For `CC(C)Nc1cccnc1N1CCN(C(=O)c2cc3cc(NS(C)(=O)=O)ccc3[nH]2)CC1` [DEL, delavirdine], the “effect on susceptibility (words)” value [1] was “slight increase in susceptibility to DEL and NEV”, the “Average fold reduction in susceptibility” value [14] was 0.3 fold and the “Average fold reduction in susceptibility” value [15] was 0.2 fold. For the same compound, the “Average fold reduction in susceptibility” value [16] was 0.13 fold, the “Average fold reduction in susceptibility” value [17] was 0.2 fold and the “Average fold reduction in susceptibility” value [18] was 0.25 fold. For the same compound, the “Average fold reduction in susceptibility” value [19] was 0.4 fold.

For `Cc1ccnc2c1NC(=O)c1cccnc1N2C1CC1` [NEV, nevirapine], the “effect on susceptibility (words)” value [1] was “slight increase in susceptibility to DEL and NEV”, the “Average fold reduction in susceptibility” value [14] was 0.6 fold and the “Average fold reduction in susceptibility” value [15] was 0.6 fold. The “Average fold reduction in susceptibility” value [16] was 0.42 fold, the “Average fold reduction in susceptibility” value [17] was 0.8 fold and the “Average fold reduction in susceptibility” value [18] was 0.5 fold. For the same compound, the “Average fold reduction in susceptibility” value [19] was 0.3 fold.

For `Nc1ncnc2c1ncn2CCOCP(=O)(O)O` [adefovir], the “fold reduction in susceptibility” value [20] is given as 9 fold, the “fold increase in IC50 / reduction in susceptibility” value [21] is given as 16 fold and the “sensitivity of resistant viruses” value [22] is given as “remain sensitive to adefovir”.
